Experimental data: the NIST ThermoML archive (doi:10.1016/j.fluid.2012.09.026)
“And” between values parts separate entries of the source, which are not always exact repeats. Equal values may be shown once.

Columns and labels:
[1] = for vapor or sublimation pressure: Closed cell (Static) method
[2] = molar heat capacity at constant volume; details: Vacuum adiabatic calorimetry

CCCCO [butan-1-ol]
[1], Liquid
Details	vapor or sublimation pressure
496.62 K	1529 kPa
497.54 K	1549 kPa
497.6 K	1555 kPa
497.65 K	1555 kPa
497.7 K	1559 kPa
497.97 K	1559 kPa
506.74 K	1834 kPa
506.84 K	1834 kPa
507.01 K	1854 kPa and 1844 kPa
507.23 K	1844 kPa
507.25 K	1844 kPa
507.3 K	1854 kPa
518.64 K	2241 kPa
518.91 K	2246 kPa
518.99 K	2248 kPa
519.06 K	2248 kPa
519.2 K	2252 kPa
528.31 K	2622 kPa
531.38 K	2776 kPa
532.65 K	2804 kPa
533.03 K	2834 kPa
533.2 K	2834 kPa
533.4 K	2838 kPa
537.47 K	3029 kPa
539.69 K	3127 kPa
541.16 K	3205 kPa
541.95 K	3245 kPa
542.81 K	3295 kPa
543.19 K	3293 kPa
543.3 K	3315 kPa
543.89 K	3315 kPa
546.79 K	3456 kPa
548.49 K	3579 kPa
550.45 K	3647 kPa
555.53 K	3983 kPa
555.6 K	3945 kPa
555.7 K	3941 kPa
556.16 K	3963 kPa
557.65 K	4075 kPa
559.05 K	4168 kPa
559.33 K	4181 kPa

Details	mass density [kg/m3]	molar heat capacity at constant volume [J/K/mol]	specific volume [m3/kg]
[1], 520 K, Gas, isochoric method	–	–	0.01653
[1], 520 K, Liquid, isochoric method	–	–	0.001879
[1], 530 K, Gas, isochoric method	–	–	0.01351
[1], 530 K, Liquid, isochoric method	–	–	0.001974
[1], 533.45 K, Gas, isochoric method	–	–	0.01243
[1], 533.45 K, Liquid, isochoric method	–	–	0.002001
[1], 540 K, Gas, isochoric method	–	–	0.01078
[1], 540 K, Liquid, isochoric method	–	–	0.002103
[1], 540.57 K, Liquid, Isochoric Breaking Point	470	–	–
[1], 547.36 K, Gas, Isochoric Breaking Point	113.76	–	–
[1], 550 K, Gas, isochoric method	–	–	0.008333
[1], 550 K, Liquid, isochoric method	–	–	0.002288
[1], 558.65 K, Gas, Isochoric Breaking Point	167.7	–	–
[1], 560 K, Gas, isochoric method	–	–	0.005682
[1], 560 K, Liquid, isochoric method	–	–	0.002717
[1], 561 K, Gas, isochoric method	–	–	0.005319
[1], 561 K, Liquid, isochoric method	–	–	0.002792
[1], 561.08 K, Liquid, Isochoric Breaking Point	345.9	–	–
[1], 561.85 K, Gas, Isochoric Breaking Point	203.9	–	–
[1], 562 K, Gas, isochoric method	–	–	0.004879
[1], 562 K, Liquid, isochoric method	–	–	0.002985
[1], 563 K, Gas, isochoric method	–	–	0.0046
[1], 563 K, Liquid, isochoric method	–	–	0.003108
[1], 563.04 K, Liquid, Isochoric Breaking Point	270	–	–
[2], 520 K, Gas, Specific volume=0.016529 m3/kg	–	236.45	–
[2], 520 K, Liquid, Specific volume=0.001879 m3/kg	–	220.88	–
[2], 530 K, Gas, Specific volume=0.013513 m3/kg	–	243.12	–
[2], 530 K, Liquid, Specific volume=0.001974 m3/kg	–	220.22	–
[2], 533.45 K, Gas, Specific volume=0.012425 m3/kg	–	246.16	–
[2], 533.45 K, Liquid, Specific volume=0.002001 m3/kg	–	220.22	–
[2], 540 K, Gas, Specific volume=0.010776 m3/kg	–	252.01	–
[2], 540 K, Liquid, Specific volume=0.002103 m3/kg	–	220.14	–
[2], 550 K, Gas, Specific volume=0.008333 m3/kg	–	260.91	–
[2], 550 K, Liquid, Specific volume=0.002288 m3/kg	–	220.88	–
[2], 560 K, Gas, Specific volume=0.005682 m3/kg	–	281.74	–
[2], 560 K, Liquid, Specific volume=0.002717 m3/kg	–	228.37	–
[2], 561 K, Gas, Specific volume=0.005319 m3/kg	–	286.85	–
[2], 561 K, Liquid, Specific volume=0.002792 m3/kg	–	235.71	–
[2], 562 K, Gas, Specific volume=0.004879 m3/kg	–	294.26	–
[2], 562 K, Liquid, Specific volume=0.002985 m3/kg	–	247.57	–
[2], 563 K, Gas, Specific volume=0.0046 m3/kg	–	303.9	–
[2], 563 K, Liquid, Specific volume=0.003108 m3/kg	–	258.68	–
[2], 563.21 K, Fluid (supercritical or subcritical phases), Mass density=270 kg/m3	–	356.16	–
[2], 563.39 K, Fluid (supercritical or subcritical phases), Mass density=270 kg/m3	–	317.24	–
[2], 563.57 K, Fluid (supercritical or subcritical phases), Mass density=270 kg/m3	–	306.86	–
[2], 564.81 K, Fluid (supercritical or subcritical phases), Mass density=270 kg/m3	–	294.63	–
[2], 564.99 K, Fluid (supercritical or subcritical phases), Mass density=270 kg/m3	–	292.04	–
[2], 565.17 K, Fluid (supercritical or subcritical phases), Mass density=270 kg/m3	–	290.19	–
[2], 566.6 K, Fluid (supercritical or subcritical phases), Mass density=270 kg/m3	–	282.4	–
[2], 566.77 K, Fluid (supercritical or subcritical phases), Mass density=270 kg/m3	–	280.18	–
[2], 566.95 K, Fluid (supercritical or subcritical phases), Mass density=270 kg/m3	–	279.81	–
[2], 567.13 K, Fluid (supercritical or subcritical phases), Mass density=270 kg/m3	–	277.59	–
[2], 569.09 K, Fluid (supercritical or subcritical phases), Mass density=270 kg/m3	–	269.8	–
[2], 569.26 K, Fluid (supercritical or subcritical phases), Mass density=270 kg/m3	–	269.06	–
[2], 569.44 K, Fluid (supercritical or subcritical phases), Mass density=270 kg/m3	–	268.32	–
[2], 573.52 K, Fluid (supercritical or subcritical phases), Mass density=270 kg/m3	–	259.06	–
[2], 573.67 K, Fluid (supercritical or subcritical phases), Mass density=270 kg/m3	–	257.94	–
[2], 582.51 K, Fluid (supercritical or subcritical phases), Mass density=270 kg/m3	–	246.83	–
[2], 582.69 K, Fluid (supercritical or subcritical phases), Mass density=270 kg/m3	–	246.08	–
[2], 582.86 K, Fluid (supercritical or subcritical phases), Mass density=270 kg/m3	–	246.08	–
[2], 583.22 K, Fluid (supercritical or subcritical phases), Mass density=270 kg/m3	–	245.34	–
[2], 590.92 K, Fluid (supercritical or subcritical phases), Mass density=270 kg/m3	–	240.15	–
[2], 591.07 K, Fluid (supercritical or subcritical phases), Mass density=270 kg/m3	–	240.52	–
[2], 591.23 K, Fluid (supercritical or subcritical phases), Mass density=270 kg/m3	–	239.41	–
[2], 591.62 K, Fluid (supercritical or subcritical phases), Mass density=270 kg/m3	–	239.41	–
[2], 598.76 K, Fluid (supercritical or subcritical phases), Mass density=270 kg/m3	–	235.34	–
[2], 599.1 K, Fluid (supercritical or subcritical phases), Mass density=270 kg/m3	–	236.08	–
[2], 599.28 K, Fluid (supercritical or subcritical phases), Mass density=270 kg/m3	–	235.71	–
[2], 599.63 K, Fluid (supercritical or subcritical phases), Mass density=270 kg/m3	–	234.97	–
[2], 605.17 K, Fluid (supercritical or subcritical phases), Mass density=270 kg/m3	–	232.74	–
[2], 605.35 K, Fluid (supercritical or subcritical phases), Mass density=270 kg/m3	–	232.37	–
[2], 606.21 K, Fluid (supercritical or subcritical phases), Mass density=270 kg/m3	–	232	–
[2], 606.56 K, Fluid (supercritical or subcritical phases), Mass density=270 kg/m3	–	232	–
[2], 609.49 K, Fluid (supercritical or subcritical phases), Mass density=270 kg/m3	–	231.26	–
[2], 609.67 K, Fluid (supercritical or subcritical phases), Mass density=270 kg/m3	–	230.52	–
[2], 609.84 K, Fluid (supercritical or subcritical phases), Mass density=270 kg/m3	–	230.89	–
[2], 621.18 K, Fluid (supercritical or subcritical phases), Mass density=270 kg/m3	–	227.55	–
[2], 621.53 K, Fluid (supercritical or subcritical phases), Mass density=270 kg/m3	–	226.81	–
[2], 622.22 K, Fluid (supercritical or subcritical phases), Mass density=270 kg/m3	–	226.07	–
[2], 637.42 K, Fluid (supercritical or subcritical phases), Mass density=270 kg/m3	–	225.33	–
[2], 637.77 K, Fluid (supercritical or subcritical phases), Mass density=270 kg/m3	–	223.11	–

[1], isochoric method
Details	mass density [kg/m3]
528.31 K, 2642 kPa, Gas	113.76
531.38 K, 2775 kPa, Gas	167.7
533.03 K, 2834 kPa, Gas	203.9
539.69 K, 3127 kPa, Gas	113.76
543.3 K, 3315 kPa, Gas	113.76
543.89 K, 3315 kPa, Gas	167.7
546.79 K, 3456 kPa, Gas	113.76
548.15 K, 3531 kPa, Gas	113.76
548.49 K, 3579 kPa, Gas	203.9
550.05 K, 4256 kPa, Liquid	470
550.45 K, 3647 kPa, Gas	167.7
551.66 K, 3610 kPa, Gas	113.76
555.53 K, 3893 kPa, Gas	167.7
555.7 K, 3941 kPa, Gas	203.9
557.65 K, 4020 kPa, Gas	167.7
558.64 K, 3788 kPa, Gas	113.76
559.33 K, 4118 kPa, Gas	203.9
561.09 K, 6138 kPa, Liquid	470
562.14 K, 4275 kPa, Gas	167.7
563.04 K, 4340 kPa, Gas	203.9
564.02 K, 4461 kPa, Liquid	270
565.29 K, 4559 kPa, Liquid	345.9
568.44 K, 4598 kPa, Gas	203.9
569.15 K, 4559 kPa, Gas	167.7
569.8 K, 4775 kPa, Liquid	270
572.54 K, 5138 kPa, Liquid	345.9
574.48 K, 4178 kPa, Gas	113.76
577.73 K, 5059 kPa, Gas	203.9
580.8 K, 5000 kPa, Gas	167.7
582.21 K, 5647 kPa, Liquid	270
583.19 K, 6118 kPa, Liquid	345.9
584.19 K, 10275 kPa, Liquid	470
588.79 K, 5613 kPa, Gas	203.9
590.87 K, 4586 kPa, Gas	113.76
593.16 K, 5452 kPa, Gas	167.7
593.16 K, 6393 kPa, Liquid	270
600.42 K, 6162 kPa, Gas	203.9
604.17 K, 5852 kPa, Gas	167.7
605.17 K, 4925 kPa, Gas	113.76
605.88 K, 7197 kPa, Liquid	270
606.77 K, 8197 kPa, Liquid	345.9
614.97 K, 6834 kPa, Gas	203.9
616.27 K, 6275 kPa, Gas	167.7
616.28 K, 5197 kPa, Gas	113.76
